Test results reported in ChEMBL document CHEMBL1137844, “Design, synthesis and structure-activity relationship of novel RXR-selective modulators” (Bioorg Med Chem Lett, 2004).

Experiments:
[1] = biological target: T1, Retinoic acid receptor RXR-alpha (Homo sapiens, UniProt P19793); assay: Antagonist activity for Retinoic X receptor alpha in CV1 cells; type: functional, cell-based, CV-1
T1 sequence (P19793 whole entry): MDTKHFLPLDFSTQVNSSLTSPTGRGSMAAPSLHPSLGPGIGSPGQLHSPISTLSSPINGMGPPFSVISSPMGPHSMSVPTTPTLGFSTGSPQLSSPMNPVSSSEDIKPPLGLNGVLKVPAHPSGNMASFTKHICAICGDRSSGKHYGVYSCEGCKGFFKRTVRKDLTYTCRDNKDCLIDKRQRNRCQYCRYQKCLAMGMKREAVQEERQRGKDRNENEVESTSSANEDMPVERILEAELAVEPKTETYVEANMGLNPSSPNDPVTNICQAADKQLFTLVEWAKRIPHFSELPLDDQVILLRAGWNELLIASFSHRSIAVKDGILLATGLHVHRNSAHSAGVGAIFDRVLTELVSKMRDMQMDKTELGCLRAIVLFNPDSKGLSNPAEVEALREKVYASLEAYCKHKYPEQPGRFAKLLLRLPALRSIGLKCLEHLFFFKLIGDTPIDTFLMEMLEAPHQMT

[2] = biological target: T2, Retinoic acid receptor RXR-gamma (Homo sapiens, UniProt P48443); assay: Displacement of [3H]9-cis-RA from retinoic X receptor gamma
T2 sequence (P48443 whole entry): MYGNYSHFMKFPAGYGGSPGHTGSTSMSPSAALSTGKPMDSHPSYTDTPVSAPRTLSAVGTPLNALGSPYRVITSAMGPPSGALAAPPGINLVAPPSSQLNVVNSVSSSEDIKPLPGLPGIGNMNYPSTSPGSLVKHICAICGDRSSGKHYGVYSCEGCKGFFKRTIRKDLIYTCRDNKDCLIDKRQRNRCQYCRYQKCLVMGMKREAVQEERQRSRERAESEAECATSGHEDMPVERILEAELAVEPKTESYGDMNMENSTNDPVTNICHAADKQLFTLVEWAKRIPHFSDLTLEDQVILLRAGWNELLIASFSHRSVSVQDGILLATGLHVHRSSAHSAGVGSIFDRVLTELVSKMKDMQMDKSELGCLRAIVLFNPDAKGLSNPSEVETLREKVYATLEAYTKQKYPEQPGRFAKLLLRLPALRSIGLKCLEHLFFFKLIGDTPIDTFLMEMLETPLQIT

[3] = biological target: T3, Retinoic acid receptor alpha (Homo sapiens, UniProt P10276); assay: Binding affinity against retinoic acid receptor alpha by [3H]ATRA displacement.
T3 sequence (P10276 whole entry): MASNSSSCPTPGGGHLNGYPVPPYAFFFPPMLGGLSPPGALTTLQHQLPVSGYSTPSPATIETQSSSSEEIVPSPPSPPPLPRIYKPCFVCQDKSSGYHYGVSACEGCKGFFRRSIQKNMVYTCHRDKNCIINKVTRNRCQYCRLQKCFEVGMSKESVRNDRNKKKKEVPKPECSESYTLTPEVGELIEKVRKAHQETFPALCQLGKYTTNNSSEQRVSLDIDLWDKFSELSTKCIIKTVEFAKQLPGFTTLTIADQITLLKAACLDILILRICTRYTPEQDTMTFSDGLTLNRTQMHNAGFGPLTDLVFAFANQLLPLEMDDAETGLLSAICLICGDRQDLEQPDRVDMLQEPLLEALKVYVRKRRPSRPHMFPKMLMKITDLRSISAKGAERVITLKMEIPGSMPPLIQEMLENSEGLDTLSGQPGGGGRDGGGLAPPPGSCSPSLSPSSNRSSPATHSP

[4] = biological target: T4, Retinoic acid receptor RXR-beta (Homo sapiens, UniProt P28702); assay: Displacement of [3H]9-cis-RA from Retinoic X receptor beta
T4 sequence (P28702 whole entry): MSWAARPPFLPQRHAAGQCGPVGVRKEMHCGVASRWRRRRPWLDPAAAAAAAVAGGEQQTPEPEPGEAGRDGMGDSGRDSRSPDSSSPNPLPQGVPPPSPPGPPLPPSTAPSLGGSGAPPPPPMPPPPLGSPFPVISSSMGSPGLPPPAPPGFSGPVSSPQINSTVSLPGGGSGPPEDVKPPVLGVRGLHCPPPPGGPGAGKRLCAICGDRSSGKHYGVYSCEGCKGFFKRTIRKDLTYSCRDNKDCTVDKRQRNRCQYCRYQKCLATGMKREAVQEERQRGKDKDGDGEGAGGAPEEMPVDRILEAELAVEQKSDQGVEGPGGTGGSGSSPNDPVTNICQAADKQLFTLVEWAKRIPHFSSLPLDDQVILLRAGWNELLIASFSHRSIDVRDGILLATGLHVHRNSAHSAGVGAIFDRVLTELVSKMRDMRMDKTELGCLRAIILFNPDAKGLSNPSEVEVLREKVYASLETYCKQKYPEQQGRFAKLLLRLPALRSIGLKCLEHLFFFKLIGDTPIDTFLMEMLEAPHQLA

[5] = biological target: T1, Retinoic acid receptor RXR-alpha; assay: Binding affinity against Retinoic acid receptor RXR-alpha by [3H]9-cis-RA displacement.
[6] = biological target: T1, Retinoic acid receptor RXR-alpha; assay: Transcriptional activation in CV-1 cells expressing Retinoid X receptor alpha; type: cell-based

Structure (SMILES)	IC50 [1] [nM]	Ki [2] [nM]	Ki [3] [µM]	Ki [4] [nM]	Ki [5] [nM]	EC50 [6] [nM]
C/C(=C\C(=O)O)c1cc2cccc(-c3cc(C(C)C)cc(C(C)C)c3OCCCF)c2o1	194	–	> 10	–	47	–
CCCCCCCOc1c(-c2cccc3sc(/C(C)=C/C(=O)O)cc23)cc(C(C)(C)C)cc1C(C)(C)C	83	28	> 10	12	5	–
C/C(=C\C(=O)O)c1cc2c(-c3cc(C(C)(C)C)cc(C(C)(C)C)c3OCCCF)cccc2s1	8	21	7.28	10	3	–
CCCOc1c(-c2cccc3cc(/C(C)=C/C(=O)O)oc23)cc(C(C)C)cc1C(C)C	128	–	8.5	–	44	–
CCCOc1c(-c2cccc3sc(/C(C)=C/C(=O)O)cc23)cc(C(C)C)cc1C(C)C	16	20	6.91	15	–	–
CCOc1c(-c2cccc3cc(/C(C)=C/C(=O)O)sc23)cc(C(C)C)cc1C(C)C	–	–	6.02	–	271	390
CCOc1c(-c2cccc3sc(/C(C)=C/C(=O)O)cc23)cc(C(C)C)cc1C(C)C	–	12	> 10	11	6	20
C/C(=C/C=C/C(C)=C/C(=O)O)c1cc(C(C)(C)C)cc(C(C)(C)C)c1OCC(F)F	–	39	> 1	18	–	–
C/C(=C\C(=O)O)c1cc2c(-c3cc(C(C)(C)C)cc(C(C)(C)C)c3OCCC(F)F)cccc2s1	16	37	> 10	12	7	–

More lines, now with the values ahead:

IC50 [1] [nM]	Ki [2] [nM]	Ki [3] [µM]	Ki [4] [nM]	Ki [5] [nM]	EC50 [6] [nM]	Structure (SMILES)
300	500	> 10	261	161	–	C/C(=C\C(=O)O)c1cc2cccc(-c3cc(C(C)C)cc(C(C)C)c3OCC(F)F)c2o1
–	–	–	7.5	–	–	Cc1cc2c(cc1C1(c3ccc(C(=O)O)cn3)CC1)C(C)(C)CCC2(C)C
–	–	> 10	–	–	74	CCOc1c(-c2cccc3cc(/C(C)=C/C(=O)O)oc23)cc(C(C)C)cc1C(C)C
11	28	> 10	64.5	16	–	CCCCOc1c(-c2cccc3cc(/C(C)=C(\F)C(=O)O)oc23)cc(C(C)C)cc1C(C)C
24	20	8.36	55	–	–	C/C(=C\C(=O)O)c1cc2c(-c3cc(C(C)(C)C)cc(C(C)(C)C)c3OCC(F)F)cccc2s1
347	334	–	142	198	–	C/C(=C\C(=O)O)c1cc2cccc(-c3cc(C(C)C)cc(C(C)C)c3OCC(F)(F)F)c2o1
14	20	> 10	10	3	–	C/C(=C\C(=O)O)c1cc2c(-c3cc(C(C)(C)C)cc(C(C)(C)C)c3OCC(F)(F)F)cccc2s1
22	49	> 10	4	101	–	C/C(=C(/F)C(=O)O)c1cc2cccc(-c3cc(C(C)C)cc(C(C)C)c3OCC(F)F)c2o1
–	54	1.79	33	7	39	C/C(=C\C(=O)O)c1cc2c(-c3cc(C(C)(C)C)cc(C(C)(C)C)c3C)cccc2s1
